Earlier results in patent US7833986B2, “Anti-inflammatory peptides” (Salpep Biotechnology Inc., priority 2002, dated 2010).

System: lipopolysaccharide-induced hypotension
Conditions: Mathison et al. (1997)

In the case of submandibular gland peptide-T [SGP-T], the “doses that inhibit lipopolysaccharide-induced hypotension” value is listed as at least 1 µg/kg.
